From US10953027B2, “Active agents and methods of their use for the treatment of metabolic disorders and nonalcoholic fatty liver disease” (Flagship Pioneering Innovations V, Inc., priority 2018, dated 2021)

Experiments:
[1] = Assay 1. Stability in Simulated Gastric Fluid (SGF); format: in vitro ADME; conditions: 1 μM, 37° C., SGF pH 1.6 with pepsin
Protocol: Assay 1. Stability of acylated active agents in Simulated Gastric Fluid (SGF). This assay was used to assess the stability of an acylated active agent in a stomach.
Medium was prepared by dissolving 2 g of sodium chloride in 0.6 L of ultrapure water (MilliQ®, Millipore Sigma, Darmstadt, Germany). The pH was adjusted to 1.6 with 1N hydrochloric acid, and the volume was then adjusted to 1 L with purified water.
60 mg FaSSIF powder (Biorelevant™, London, UK) were dissolved in 500 mL buffer (above). Pepsin was added (0.1 mg/mL) (Millipore Sigma, Darmstadt, Germany), and the solution was stirred. The resulting SGF media were used fresh for each experiment.
Test compounds were dissolved in DMSO stock to 1 mM. An aliquot of the DMSO stock solution was removed and diluted in the SGF Media in 15 mL falcon tubes to generate a compound concentration of 1 μM. A 1 mL aliquot was immediately removed and diluted once with 1 volume of acetonitrile for T0 timepoint. The mixture was sealed and mixed at 37° C. in an incubator. Aliquots (1 mL) were removed at regular intervals and immediately quenched by the addition of 1 volume of acetonitrile. The resulting samples were analyzed by LC/MS to determine degradation rates in SGF.

[2] = Assay 2. Stability in Simulated Intestinal Fluid (SIF); format: in vitro ADME; conditions: 1 μM, 37° C., SIF pH 6.7 with pancreatin
Protocol: Assay 2. Stability of acylated active agents in Simulated Intestinal Fluid (SIF). This assay was used to assess the stability of an acylated active agent in a small intestine.
Phosphate buffer was prepared by dissolving 0.42 g of sodium hydroxide pellets and 3.95 g of monobasic sodium phosphate monohydrate and 6.19 g of sodium chloride in ultrapure water (MilliQ®, Millipore Sigma, Darmstadt, Germany). The pH was adjusted to 6.7 using aq. HCl and aq. NaOH, as necessary, and the solution was diluted with ultrapure water to produce 1 L of the pH 6.7 buffer.
112 mg FaSSIF powder (Biorelevant™, London, UK) was dissolved in 50 mL of the pH 6.7 buffer. 2 to 3 mL of the resulting solution were then added to 500 mg pancreatin (Millipore Sigma, Darmstadt, Germany). The resulting mixture was agitated by finger tapping the vessel containing the mixture until milky suspension formed. At this time, the remainder of the 50 mL FaSSiF/pH 6.7 buffer solution was added. The resulting suspension was flipped upside down 10 times to produce SIF, which was used fresh.
Test compounds were dissolved in DMSO stock to 1 mM. An aliquot of the DMSO stock solution was removed and diluted in the SIF media in 15 mL falcon tubes to produce a mixture with a tested compound concentration of 1 μM. A 1 mL aliquot was immediately removed and diluted once with 1 volume of acetonitrile for T0 timepoint. The mixture was sealed and agitated at 37° C. in an incubator. Aliquots (1 mL) were removed at regular intervals and immediately quenched by the addition of 1 volume of acetonitrile. The resulting samples were analyzed by LC/MS to determine degradation rates.

| SMILES | Assay 1 (SGF) (% Remaining @ 1 hours) [1] | Assay 2 (SIF) (% @ Remaining 4 hours) [2] |
| --- | --- | --- |
| C=C1CC[C@H](OC(=O)C2OCC[C@@H](C)O2)C/C1=C/C=C1\CCC[C@]2(C)[C@@H]([C@H](C)CCCC(C)C)CC[C@@H]12 (stereo partly drawn) [Compound 69, [(1 S,3Z)-3-[(2E)-2-[(1R,3aS,7aR)-1-[(1R)-1,5-dimethylhexyl]-7a-methyl-2,3,3a,5,6,7-hexahydro-1H-inden-4-ylidene]ethylidene]-4-methylene-cyclohexyl] (4R)-4-methyl-1,3-dioxane-2-carboxylate] | C (C: >75% of the tested compound remaining) | C (C: >75% of the tested compound remaining) |
| C=C1CC[C@H](OC(=O)C2(C)OCC[C@@H](C)O2)C/C1=C/C=C1\CCC[C@]2(C)[C@@H]([C@H](C)CCCC(C)C)CC[C@@H]12 (stereo partly drawn) [Compound 70, [(1 S,3Z)-3-[(2E)-2-[(1R,3aS,7aR)-1-[(1R)-1,5-dimethylhexyl]-7a-methyl-2,3,3a,5,6,7-hexahydro-1H-inden-4-ylidene]ethylidene]-4-methylene-cyclohexyl] (4R)-2,4-dimethyl-1,3-dioxane-2-carboxylate] | B (B: 25-75% of the tested compound remaining) | C (C: >75% of the tested compound remaining) |
| CCCC(=O)O[C@H]1[C@@H](OC(=O)CCC)COC(O)[C@@H]1OC(=O)CCC (stereo partly drawn) [Compound 72, (3R,4S,5S)-2-hydroxytetrahydro-2H-pyran-3,4,5-triyl Tributyrate] | C (C: >75% of the tested compound remaining) | A (A: <25% of the tested compound remaining) |
| CCCC(=O)O[C@H](C)CCOC(=O)Oc1ccc(/C=C/c2cc(OC(=O)OCC[C@@H](C)OC(=O)CCC)cc(OC(=O)OCC[C@@H](C)OC(=O)CCC)c2)cc1 [Compound 75, (2R,2′R)-((((5-((E)-4-((((R)-3-(butyryloxy)butoxy)carbonyl)oxy)styryl)-1,3-phenylene)bis(oxy))bis(carbonyl))bis(oxy))bis(butane-4,2-diyl) dibutyrate] | C (C: >75% of the tested compound remaining) | B (B: 25-75% of the tested compound remaining) |
| CCC(=O)OCC[C@@H](C)OC(=O)Oc1ccc(/C=C/c2cc(OC(=O)O[C@H](C)CCOC(=O)CC)cc(OC(=O)O[C@H](C)CCOC(=O)CC)c2)cc1 [Compound 76, (3R,3′R)-((((5-((E)-4-(((((R)-4-(propionyloxy)butan-2-yl)oxy)carbonyl)oxy)styryl)-1,3-phenylene)bis(oxy))bis(carbonyl))bis(oxy))bis(butane-3,1-diyl) dipropionate] | B (B: 25-75% of the tested compound remaining) | A (A: <25% of the tested compound remaining) |
| CCC(=O)O[C@H](C)CCOC(=O)Oc1ccc(/C=C/c2cc(OC(=O)OCC[C@@H](C)OC(=O)CC)cc(OC(=O)OCC[C@@H](C)OC(=O)CC)c2)cc1 [Compound 77, (2R,2′R)-((((5-((E)-4-((((R)-3-(propionyloxy)butoxy)carbonyl)oxy)styryl)-1,3-phenylene)bis(oxy))bis(carbonyl))bis(oxy))bis(butane-4,2-diyl) dipropionate] | B (B: 25-75% of the tested compound remaining) | A (A: <25% of the tested compound remaining) |
| C[C@@H]1O[C@H](OC(=O)CCc2c[nH]c3ccccc23)[C@@H](OC(=O)CCc2c[nH]c3ccccc23)[C@H](OC(=O)CCc2c[nH]c3ccccc23)[C@@H]1OC(=O)CCc1c[nH]c2ccccc12 [Compound 103, (2R,3S,4R,5R,6S)-3,4,5-tris({[3-(1H-indol-3-yl)propanoyl]oxy})-6-methyloxan-2-yl 3-(1H-indol-3-yl)propanoate] | B (B: 25-75% of the tested compound remaining) | A (A: <25% of the tested compound remaining) |
| CCCC(=O)O[C@@H]1[C@@H](OC(=O)CCC)[C@@H](OC(=O)CCc2c[nH]c3ccccc23)OC[C@@H]1OC(=O)CCC [Compound 114, (2R,3R,4S,5S)-4,5-bis(butanoyloxy)-2-{[3-(1H-indol-3-yl)propanoyl]oxy}oxan-3-yl Butanoate] | B (B: 25-75% of the tested compound remaining) | A (A: <25% of the tested compound remaining) |
| CCC(=O)OC[C@H]1OC(O)[C@H](OC(=O)CC)[C@@H](OC(=O)CC)[C@@H]1OC(=O)CC (stereo partly drawn) [Compound 142, [(2R,3R,4S,5R)-6-hydroxy-3,4,5-tris(propanoyloxy)oxan-2-yl]methyl Propanoate] | C (C: >75% of the tested compound remaining) | A (A: <25% of the tested compound remaining) |
| CCC(=O)O[C@H]1[C@H](OC(=O)CC)[C@H](OC(=O)Cc2c[nH]c3ccccc23)O[C@@H](C)[C@H]1OC(=O)CC [Compound 150, (2S,3S,4R,5R,6S)-2-{[2-(1H-indol-3-yl)acetyl]oxy}-6-methyl-4,5-bis(propanoyloxy)oxan-3-yl Propanoate] | C (C: >75% of the tested compound remaining) | A (A: <25% of the tested compound remaining) |
| CCC(=O)O[C@@H]1[C@H](OC(=O)CC)[C@H](C)OC(O)[C@H]1OC(=O)CC (stereo partly drawn) [Compound 156, (3S,4R,5R,6S)-2-hydroxy-6-methyl-4,5-bis(propanoyloxy)oxan-3-yl Propanoate] | C (C: >75% of the tested compound remaining) | A (A: <25% of the tested compound remaining) |
| CCC(=O)OC1O[C@@H](C)[C@@H](OC(=O)CC)[C@@H](OC(=O)CC)[C@@H]1OC(=O)CC (stereo partly drawn) [Compound 157, (3S,4R,5R,6S)-6-methyl-3,4,5-tris(propanoyloxy)oxan-2-yl Propanoate] | C (C: >75% of the tested compound remaining) | A (A: <25% of the tested compound remaining) |
| CCC(=O)O[C@@H]1[C@@H](OC(=O)CC)[C@@H](OC(=O)CC)CO[C@H]1O [Compound 159, (3S,4S,5R,6R)-6-hydroxy-4,5-bis(propanoyloxy)oxan-3-yl Propanoate] | C (C: >75% of the tested compound remaining) | B (B: 25-75% of the tested compound remaining) |
| CCC(=O)O[C@@H]1[C@@H](OC(=O)CC)[C@H](OC(=O)CC)CO[C@H]1O [Compound 161, (2R,3R,4S,5R)-2-hydroxy-4,5-bis(propanoyloxy)oxan-3-yl Propanoate] | C (C: >75% of the tested compound remaining) | A (A: <25% of the tested compound remaining) |
| CCC(=O)OC1OC[C@@H](OC(=O)CC)[C@H](OC(=O)CC)[C@H]1OC(=O)CC (stereo partly drawn) [Compound 162, (3R,4S,5R)-3,4,5-tris(propanoyloxy)oxan-2-yl Propanoate] | C (C: >75% of the tested compound remaining) | A (A: <25% of the tested compound remaining) |
| O=C(CCc1c[nH]c2ccccc12)O[C@@H]1[C@H](OC(=O)CCc2c[nH]c3ccccc23)COC(O)[C@@H]1OC(=O)CCc1c[nH]c2ccccc12 (stereo partly drawn) [Compound 167, (3R,4R,5R)-6-hydroxy-4,5-bis({[3-(1H-indol-3-yl)propanoyl]oxy})oxan-3-yl 3-(1H-indol-3-yl)propanoate] | C (C: >75% of the tested compound remaining) | A (A: <25% of the tested compound remaining) |
| O=C(CCc1c[nH]c2ccccc12)O[C@H]1OC[C@@H](OC(=O)CCc2c[nH]c3ccccc23)[C@@H](OC(=O)CCc2c[nH]c3ccccc23)[C@H]1OC(=O)CCc1c[nH]c2ccccc12 [Compound 182, (2R,3R,4R,5R)-3,4,5-tris({[3-(1H-indol-3-yl)propanoyl]oxy})oxan-2-yl 3-(1H-indol-3-yl)propanoate] | C (C: >75% of the tested compound remaining) | A (A: <25% of the tested compound remaining) |
| CCCC(=O)Oc1cc(OC(=O)CCC)c2c(=O)c(OC(=O)CCC)c(-c3cc(OC(=O)CCC)c(OC(=O)CCC)c(OC(=O)CCC)c3)oc2c1 [Compound 200, 3,5-bis(butanoyloxy)-4-oxo-2-[3,4,5-tris(butanoyloxy)phenyl]-4H-chromen-7-yl Butanoate] | C (C: >75% of the tested compound remaining) | C (C: >75% of the tested compound remaining) |
